In paper PMC12385234, “In Vitro Inhibitory Effects and Molecular Mechanism of Four Theaflavins on Isozymes of CYP450 and UGTs” (Foods, 2025):
Read-outs that look alike come from different tables or passages of the source.

How the values were obtained:
CYP1A2 = target: T1, CYP1A2 (Homo sapiens, UniProt P05177); assay: Inhibition of CYP1A2-catalyzed phenacetin metabolism in pooled human liver microsomes
T1 sequence (P05177 1-516): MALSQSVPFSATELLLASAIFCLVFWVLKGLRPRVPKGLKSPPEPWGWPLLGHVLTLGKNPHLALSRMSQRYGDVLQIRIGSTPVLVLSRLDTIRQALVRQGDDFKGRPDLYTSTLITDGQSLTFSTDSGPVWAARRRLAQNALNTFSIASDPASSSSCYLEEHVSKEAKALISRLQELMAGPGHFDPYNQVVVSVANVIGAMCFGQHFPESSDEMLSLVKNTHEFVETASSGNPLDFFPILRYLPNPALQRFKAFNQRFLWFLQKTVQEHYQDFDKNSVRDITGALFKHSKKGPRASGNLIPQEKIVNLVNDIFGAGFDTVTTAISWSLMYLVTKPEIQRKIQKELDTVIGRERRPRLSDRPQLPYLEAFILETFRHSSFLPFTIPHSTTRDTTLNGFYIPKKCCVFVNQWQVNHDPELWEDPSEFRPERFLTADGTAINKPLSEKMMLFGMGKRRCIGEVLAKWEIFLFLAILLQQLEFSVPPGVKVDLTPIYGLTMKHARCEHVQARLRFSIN
Description: (§1) The virological tests for AIDS, hepatitis B, and hepatitis C of the donors were negative. The final reaction volume was 150 µL, and the reaction was carried out in a 96-well deep-well cell plate made of polypropylene. The reaction was conducted at a temperature of 37 °C. […]
(§2) The AB SCIEX 4000/5000 HPLC-MS/MS system, integrated with the HTS PAL autosampler (CTC Analytics AG, Basel, Switzerland) and Shimadzu LC 20 series HPLC (Shimadzu Corporation, Kyoto, Japan), was used for analysis. […] Quantification was achieved by calculating the area under the curve (AUC) for each MRM transition. […]
(§3) In accordance with the DDI guidelines from the NMPA and the US FDA, the inhibition of CYP1A2, 2B6, 2C8, 2C9, 2C19, 2D6, and 3A4 activity by the test article was assessed. The inhibitory effect was determined by measuring the reduction in metabolite formation of respective probe substrates, expressed as relative activity compared to the negative control (NC), using the following formula: Relative activity (% of NC) = (formation of metabolites in test or PC/formation in NC) × 100. […] Data processing: When the calculated value is less than 100, three significant digits are retained. When the calculated value is greater than or equal to 100, only the integer part is retained.

CYP2C8 = target: T2, CYP2C8 (Homo sapiens, UniProt P10632); assay: Inhibition of CYP2C8-mediated amodiaquine metabolism in pooled human liver microsomes
T2 sequence (P10632 1-490): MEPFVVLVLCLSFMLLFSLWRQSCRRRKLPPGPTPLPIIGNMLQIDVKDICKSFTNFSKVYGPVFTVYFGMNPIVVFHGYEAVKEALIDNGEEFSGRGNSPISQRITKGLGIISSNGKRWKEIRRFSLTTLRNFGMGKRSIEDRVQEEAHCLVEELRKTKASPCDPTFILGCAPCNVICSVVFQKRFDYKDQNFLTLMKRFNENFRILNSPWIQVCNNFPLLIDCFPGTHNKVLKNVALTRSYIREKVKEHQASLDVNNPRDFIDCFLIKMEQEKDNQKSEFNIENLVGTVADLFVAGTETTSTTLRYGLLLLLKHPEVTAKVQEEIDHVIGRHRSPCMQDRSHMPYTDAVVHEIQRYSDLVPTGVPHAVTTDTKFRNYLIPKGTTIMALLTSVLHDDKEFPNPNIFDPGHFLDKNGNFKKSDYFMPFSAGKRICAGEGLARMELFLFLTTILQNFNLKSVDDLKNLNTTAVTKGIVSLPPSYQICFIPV
Description: as §1, §2, §3

CYP2C19 = CYP2C19 (Homo sapiens, UniProt P33261); assay: Inhibition of CYP2C19 (S-mephenytoin) in pooled human liver microsomes
Description: (§4) The final reaction volume was 150 µL, and the reaction was carried out in a 96-well deep-well cell plate made of polypropylene. The reaction was conducted at a temperature of 37 °C. To ensure that the reaction time was within the linear range of the metabolic rate and to avoid data distortion caused by substrate depletion or product feedback inhibition, the reaction time for each substrate varied as follows: the incubation time for detecting CYP3A4 enzyme activity was 5 min; the incubation time for detecting CYP2B6, CYP2C8, CYP2C9, and CYP2D6 enzyme activities was 10 min each; the incubation time for detecting CYP1A2 and CYP2C19 enzyme activities was 30 min each.
(§5) The AB SCIEX 4000/5000 HPLC-MS/MS system, integrated with the HTS PAL autosampler (CTC Analytics AG, Basel, Switzerland) and Shimadzu LC 20 series HPLC (Shimadzu Corporation, Kyoto, Japan), was used for analysis. […]
(§6) In accordance with the DDI guidelines from the NMPA and the US FDA, the inhibition of CYP1A2, 2B6, 2C8, 2C9, 2C19, 2D6, and 3A4 activity by the test article was assessed. The inhibitory effect was determined by measuring the reduction in metabolite formation of respective probe substrates, expressed as relative activity compared to the negative control (NC), using the following formula: Relative activity (% of NC) = (formation of metabolites in test or PC/formation in NC) × 100. […]

CYP2C9 = CYP2C9 (Homo sapiens, UniProt P11712); assay: Inhibition of CYP2C9 (diclofenac) in pooled human liver microsomes
Description: as §1, §2, §3

UGT1A3 = target: T3, UGT1A3 (Homo sapiens, UniProt P35503); assay: Inhibition of UGT1A3-mediated beta-estradiol glucuronidation, human recombinant UGT
T3 sequence (P35503 29-534): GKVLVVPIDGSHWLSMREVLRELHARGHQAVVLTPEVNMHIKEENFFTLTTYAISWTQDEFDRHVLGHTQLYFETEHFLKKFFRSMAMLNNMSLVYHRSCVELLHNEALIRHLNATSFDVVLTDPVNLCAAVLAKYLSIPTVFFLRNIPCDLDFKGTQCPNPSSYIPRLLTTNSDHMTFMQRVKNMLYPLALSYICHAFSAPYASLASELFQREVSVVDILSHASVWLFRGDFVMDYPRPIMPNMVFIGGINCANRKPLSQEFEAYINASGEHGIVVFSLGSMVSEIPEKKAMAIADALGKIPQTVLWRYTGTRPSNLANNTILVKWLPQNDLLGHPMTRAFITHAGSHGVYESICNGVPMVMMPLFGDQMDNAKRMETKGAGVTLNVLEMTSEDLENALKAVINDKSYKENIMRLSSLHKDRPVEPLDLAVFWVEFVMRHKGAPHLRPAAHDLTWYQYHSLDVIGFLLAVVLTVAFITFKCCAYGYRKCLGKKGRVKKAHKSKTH
Description: (§7) These enzymes were then incubated with each compound (Table 1). Subsequently, the corresponding substrates for each UGT isoenzyme were added. The inhibitory effects of the respective products were evaluated by measuring their generation. […] Each incubation mixture was prepared in triplicate, containing 0.25 mg/mL recombinant enzyme, 5 mM UDPGA, and 10 mM propylthiouracil, among other conditions.

CYP3A4 = CYP3A4 (Homo sapiens, UniProt P08684); assay: Inhibition of CYP3A4 (testosterone, midazolam) in pooled human liver microsomes
Description: as §1, §2, §3

CYP2B6 = target: T4, CYP2B6 (Homo sapiens, UniProt P20813); assay: Inhibition of CYP2B6 (bupropion) in pooled human liver microsomes
T4 sequence (P20813 1-491): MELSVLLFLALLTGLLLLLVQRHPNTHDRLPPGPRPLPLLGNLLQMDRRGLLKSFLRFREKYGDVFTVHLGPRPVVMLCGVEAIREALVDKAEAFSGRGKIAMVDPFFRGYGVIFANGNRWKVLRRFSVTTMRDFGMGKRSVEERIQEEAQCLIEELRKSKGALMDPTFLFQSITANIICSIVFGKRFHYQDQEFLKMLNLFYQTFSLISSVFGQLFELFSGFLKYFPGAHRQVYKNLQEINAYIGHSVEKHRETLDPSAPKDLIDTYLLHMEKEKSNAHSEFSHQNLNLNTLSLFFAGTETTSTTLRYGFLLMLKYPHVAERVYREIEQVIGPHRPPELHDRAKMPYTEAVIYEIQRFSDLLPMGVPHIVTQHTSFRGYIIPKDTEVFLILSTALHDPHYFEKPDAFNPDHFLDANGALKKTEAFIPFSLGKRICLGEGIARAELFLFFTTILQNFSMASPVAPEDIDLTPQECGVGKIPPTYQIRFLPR
Description: as §1, §2, §3

CYP2D6 = CYP2D6 (Homo sapiens, UniProt P10635); assay: Inhibition of CYP2D6 (dextromethorphan) in pooled human liver microsomes
Description: as §4, §5, §6

UGT2B15 = target: T5, UGT2B15 (Homo sapiens, UniProt P54855); assay: Inhibition of UGT2B15-catalyzed 4-trifluoromethyl-7-hydroxycoumarin glucuronidation, human recombinant UGT
T5 sequence (P54855 24-530): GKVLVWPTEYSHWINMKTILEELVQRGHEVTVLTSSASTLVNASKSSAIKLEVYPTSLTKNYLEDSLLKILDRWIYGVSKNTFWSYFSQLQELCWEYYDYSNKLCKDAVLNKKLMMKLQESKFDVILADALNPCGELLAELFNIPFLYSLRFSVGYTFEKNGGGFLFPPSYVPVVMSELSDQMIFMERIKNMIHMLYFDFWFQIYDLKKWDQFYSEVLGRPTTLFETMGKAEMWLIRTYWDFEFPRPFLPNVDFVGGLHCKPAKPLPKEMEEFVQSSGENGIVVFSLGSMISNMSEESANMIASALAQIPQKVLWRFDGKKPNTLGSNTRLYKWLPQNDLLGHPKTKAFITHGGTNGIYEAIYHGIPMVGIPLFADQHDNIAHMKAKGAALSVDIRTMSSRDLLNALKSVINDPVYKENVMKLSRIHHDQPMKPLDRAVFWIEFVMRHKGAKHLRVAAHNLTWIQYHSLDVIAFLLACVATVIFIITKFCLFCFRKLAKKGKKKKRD
Description: as §7

UGT1A4 = target: T6, UGT1A4 (Homo sapiens, UniProt P22310); assay: Inhibition of UGT1A4-catalyzed trifluoperazine glucuronidation, human recombinant UGT
T6 sequence (P22310 29-534): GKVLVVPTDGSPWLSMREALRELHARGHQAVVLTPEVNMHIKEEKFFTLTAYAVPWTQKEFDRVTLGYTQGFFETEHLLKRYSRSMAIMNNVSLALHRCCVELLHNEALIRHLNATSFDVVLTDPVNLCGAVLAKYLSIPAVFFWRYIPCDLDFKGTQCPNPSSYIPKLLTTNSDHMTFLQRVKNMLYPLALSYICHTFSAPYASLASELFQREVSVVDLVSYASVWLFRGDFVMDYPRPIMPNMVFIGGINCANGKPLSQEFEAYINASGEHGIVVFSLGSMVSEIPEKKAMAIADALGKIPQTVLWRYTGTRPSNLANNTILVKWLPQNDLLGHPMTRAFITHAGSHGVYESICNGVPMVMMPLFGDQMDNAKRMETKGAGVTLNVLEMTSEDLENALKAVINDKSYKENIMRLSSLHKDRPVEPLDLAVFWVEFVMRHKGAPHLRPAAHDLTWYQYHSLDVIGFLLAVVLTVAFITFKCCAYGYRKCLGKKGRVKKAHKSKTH
Description: as §7

UGT1A1 [1] = target: T7, UGT1A1 (Homo sapiens, UniProt P22309); assay: Inhibition of UGT1A1-catalyzed beta-estradiol glucuronidation, human recombinant UGT
T7 sequence (P22309 26-533): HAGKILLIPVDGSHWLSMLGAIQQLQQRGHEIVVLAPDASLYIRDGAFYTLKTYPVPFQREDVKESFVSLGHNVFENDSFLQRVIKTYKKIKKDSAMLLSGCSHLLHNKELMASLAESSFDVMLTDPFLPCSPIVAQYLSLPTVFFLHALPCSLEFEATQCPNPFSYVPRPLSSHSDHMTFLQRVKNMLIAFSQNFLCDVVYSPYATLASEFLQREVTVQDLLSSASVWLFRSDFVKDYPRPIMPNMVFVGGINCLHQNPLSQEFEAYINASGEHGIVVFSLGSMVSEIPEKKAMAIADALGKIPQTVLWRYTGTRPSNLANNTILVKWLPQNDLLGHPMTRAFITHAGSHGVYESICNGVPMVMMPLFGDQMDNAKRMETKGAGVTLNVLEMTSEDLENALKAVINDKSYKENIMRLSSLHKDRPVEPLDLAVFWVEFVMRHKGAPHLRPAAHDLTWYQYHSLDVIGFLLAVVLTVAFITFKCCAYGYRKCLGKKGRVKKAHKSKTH
Description: as §7

UGT1A1 [2] = details: cited from earlier work
UGT1A9 = details: cited from earlier work

CYP3A4, sequence (P08684 whole entry): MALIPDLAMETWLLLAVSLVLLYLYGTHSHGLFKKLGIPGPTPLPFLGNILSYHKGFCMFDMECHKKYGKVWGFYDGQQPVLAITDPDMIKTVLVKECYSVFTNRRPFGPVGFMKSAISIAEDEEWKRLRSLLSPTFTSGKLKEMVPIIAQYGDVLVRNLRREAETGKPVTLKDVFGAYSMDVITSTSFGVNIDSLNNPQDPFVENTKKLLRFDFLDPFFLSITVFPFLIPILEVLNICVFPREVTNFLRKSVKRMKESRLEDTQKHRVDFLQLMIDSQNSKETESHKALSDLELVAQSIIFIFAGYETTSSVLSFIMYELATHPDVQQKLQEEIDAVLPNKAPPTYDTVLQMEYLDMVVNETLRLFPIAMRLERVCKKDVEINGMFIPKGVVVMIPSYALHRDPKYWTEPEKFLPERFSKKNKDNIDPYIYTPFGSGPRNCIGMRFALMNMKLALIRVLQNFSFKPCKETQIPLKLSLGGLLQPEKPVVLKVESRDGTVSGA
CYP2C9, sequence (P11712 whole entry): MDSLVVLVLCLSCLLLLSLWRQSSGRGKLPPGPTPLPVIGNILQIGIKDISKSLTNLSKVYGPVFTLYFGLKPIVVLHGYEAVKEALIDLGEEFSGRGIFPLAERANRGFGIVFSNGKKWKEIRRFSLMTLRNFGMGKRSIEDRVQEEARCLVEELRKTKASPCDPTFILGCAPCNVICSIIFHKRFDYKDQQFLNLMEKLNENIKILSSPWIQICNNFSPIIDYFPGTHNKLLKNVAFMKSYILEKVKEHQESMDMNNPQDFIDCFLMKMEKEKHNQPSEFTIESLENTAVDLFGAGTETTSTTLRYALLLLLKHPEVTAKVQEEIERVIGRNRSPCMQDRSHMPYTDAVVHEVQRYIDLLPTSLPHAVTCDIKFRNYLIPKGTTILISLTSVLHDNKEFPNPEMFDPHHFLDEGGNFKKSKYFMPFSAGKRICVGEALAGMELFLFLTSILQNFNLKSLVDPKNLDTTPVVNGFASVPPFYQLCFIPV
CYP2D6, sequence (P10635 whole entry): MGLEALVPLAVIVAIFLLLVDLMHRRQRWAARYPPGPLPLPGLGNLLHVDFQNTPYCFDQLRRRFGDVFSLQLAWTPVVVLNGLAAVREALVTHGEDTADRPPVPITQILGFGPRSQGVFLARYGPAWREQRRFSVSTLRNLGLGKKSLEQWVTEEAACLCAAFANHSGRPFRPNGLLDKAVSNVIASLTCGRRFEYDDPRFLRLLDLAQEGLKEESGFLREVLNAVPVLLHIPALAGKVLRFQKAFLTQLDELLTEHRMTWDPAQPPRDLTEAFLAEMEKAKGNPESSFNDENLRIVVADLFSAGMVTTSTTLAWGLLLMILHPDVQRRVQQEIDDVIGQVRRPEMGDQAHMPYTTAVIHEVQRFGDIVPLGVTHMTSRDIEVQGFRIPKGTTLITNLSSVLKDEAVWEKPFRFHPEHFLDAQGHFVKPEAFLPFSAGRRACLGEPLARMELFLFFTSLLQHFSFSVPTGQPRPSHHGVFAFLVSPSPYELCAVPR
CYP2C19, sequence (P33261 whole entry): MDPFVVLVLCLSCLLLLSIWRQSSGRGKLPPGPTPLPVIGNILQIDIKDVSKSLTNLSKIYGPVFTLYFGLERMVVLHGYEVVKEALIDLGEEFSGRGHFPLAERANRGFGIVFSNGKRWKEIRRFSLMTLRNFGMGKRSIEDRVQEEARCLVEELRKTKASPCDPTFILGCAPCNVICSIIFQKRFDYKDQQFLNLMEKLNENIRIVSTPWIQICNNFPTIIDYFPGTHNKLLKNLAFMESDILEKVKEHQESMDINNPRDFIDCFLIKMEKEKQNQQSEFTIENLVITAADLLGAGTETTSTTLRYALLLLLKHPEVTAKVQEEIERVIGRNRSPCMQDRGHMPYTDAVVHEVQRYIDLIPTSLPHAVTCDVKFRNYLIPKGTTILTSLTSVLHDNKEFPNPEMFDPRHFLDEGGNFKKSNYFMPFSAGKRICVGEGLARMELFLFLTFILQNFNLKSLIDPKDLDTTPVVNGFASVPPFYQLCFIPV

Molecule	IC50 (CYP1A2) [µM]	IC50 (CYP2C8) [µM]	IC50 (CYP2C19) [µM]	IC50 (CYP2C9) [µM]	IC50 (UGT1A3) [µM]	IC50 (CYP3A4) [µM]	IC50 (CYP3A4; read-out: IC50, CYP3A4-M, pooled HLMs, probe midazolam) [µM]	IC50 (CYP2B6) [µM]	IC50 (CYP2D6) [µM]	IC50 (UGT2B15) [µM]	IC50 (UGT1A4) [µM]	IC50 (UGT1A1 [1]) [µM]	Inhibition of UGT1A1 (in words) (UGT1A1 [2])	Inhibition of UGT1A9 (in words) (UGT1A9)
O=c1c(O)cc([C@H]2Oc3cc(O)cc(O)c3C[C@H]2O)cc2c([C@H]3Oc4cc(O)cc(O)c4C[C@H]3O)cc(O)c(O)c12 [Theaflavin, theaflavin]	> 20	> 20	> 20	> 20	> 20	> 20	> 20	> 20	> 20	> 20	> 20	3.89		
O=c1c(O)c(-c2ccc(O)c(O)c2)oc2cc(O)cc(O)c12 [quercetin]													strong inhibition	
(-)-epigallocatechin-3-gallate [EGCG]													moderately inhibit	moderately inhibit
